Test results: patent US11154858B2, “Microfluidic tissue development systems” (University of Pittsburgh—Of the Commonwealth System of …, priority 2015, dated 2021)

Assays:
[1] = tested on: chondrocytes in the cartilage chamber; test: RT-PCR marker expression, chondrocyte response in cartilage (top) chamber of the bioreactor; type: cell-based; details: weeks 3 and 4 (1 nM estradiol + 10 nM progesterone; 0.1 nM estradiol + 50 nM progesterone)
Protocol: FIGS. 17-20 are graphs that show differential expression of markers (as determined by RT-PCR) for a control medium that contained no estrogen or progesterone (first bar), and then different concentrations of hormones supplied to one or the other of the bioreactor chambers during week 1 (w1: 0.1 nM estradiol), week 2 (w2: 1 nM estradiol), week 3 (w3: 1 nM estradiol and 10 nM progesterone), and week 4 (w4: 0.1 nM estradiol and 50 nM progesterone). […] FIGS. 17-18 show differential expression of markers (as determined by RT-PCR) for a control medium that contained no estrogen or progesterone (first bar), and then different concentrations of hormones supplied to the chambers during week 1 (w1: 0.1 nM estradiol), week 2 (w2: 1 nM estradiol), week 3 (w3: 1 nM estradiol and 10 nM progesterone), and week 4 (w4: 0.1 nM estradiol and 50 nM progesterone).

[2] = not told
From the text: The porosity and permeability of the latter have been estimated via Boyle's pycnometer and scanning electron microscopy (SEM) analysis.

Permeability [2]	Molecule	expression of cartilage anabolic markers, progesterone progressively added [1]
–	CC(=O)[C@H]1CC[C@H]2[C@@H]3CCC4=CC(=O)CC[C@]4(C)[C@H]3CC[C@]12C [progesterone]	downregulation is still present
3.234e−09 m^2	poly-L-lactate [PLLA scaffold]	–
